Test results reported in US11254671B2, “Chemical compounds” (GLAXOSMITHKLINE INTELLECTUAL PROPERTY DEVELOPMENT LIMITED, priority 2017, dated 2022).

Test system: phosphorylated Akt at serine 473 (pAKTs473) in primary human lung fibroblasts
Test: Highthroughput phosphorylated Akt (Ser473) in vitro immunoassay (MSD)
Assay type: cell-based
Details: Fibroblast, 1 h compound, PDGF-BB 10 ng/ml for 10 min, mean of multiple experiments, read-out: mean pIC50, inhibition of pAkt (Ser473) (converted)
Summary of the method: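 Primary human lung fibroblasts in 0.4% FBS were preincubated with compound for 1 h at 37 °C (11-point curve, 0.1% DMSO final), then stimulated with 10 ng/ml PDGF-BB for 10 min. pAkt Ser473 in lysates was measured by MSD electrochemiluminescence; IC50 was derived by non-linear regression between stimulated and unstimulated controls.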

Structure (SMILES)	IC50 [nM]
CC[C@H]1COCCN1c1cc(C2(S(=O)(=O)C3CC3)CC2)cc(-c2ccc3[nH]c(CNC)cc3n2)n1 [Example 11, (S)-1-(5-(4-(1-(cyclopropylsulfonyl)cyclopropyl)-6-(3-ethylmorpholino)pyridin-2-yl)-1H-pyrrolo[3,2-b]pyridin-2-yl)-N-methylmethanamine]	3.16 to 316
CNCc1cc2nc(-c3cc(C(C)(C)S(C)(=O)=O)cc(N4CC5CCC(C4)O5)n3)ccc2[nH]1 [Example 4, 1-(5-(6-(8-oxa-3-azabicyclo[3.2.1]octan-3-yl)-4-(2-(methylsulfonyl)propan-2-yl)pyridin-2-yl)-1H-pyrrolo[3,2-b]pyridin-2-yl)-N-methylmethanamine]	3.16 to 316
